Active and inactive are the calls of the source. The rule behind the calls is not given here.
Test system: CCRIS mutagenicity, Ames/micronucleus/aberration tests
Assay: CCRIS mutagenicity studies
[1] = Test System: AMES SALMONELLA TYPHIMURIUM, Strain/Indicator: TA98, Metabolic Activation: NONE, Method: PREINCUBATION
[2] = Test System: AMES SALMONELLA TYPHIMURIUM, Strain/Indicator: TA100, Metabolic Activation: NONE, Method: PREINCUBATION
[3] = Test System: AMES SALMONELLA TYPHIMURIUM, Strain/Indicator: TA1535, Metabolic Activation: NONE, Method: PREINCUBATION
[4] = Test System: AMES SALMONELLA TYPHIMURIUM, Strain/Indicator: TA1537, Metabolic Activation: NONE, Method: PREINCUBATION
[5] = Test System: AMES SALMONELLA TYPHIMURIUM, Strain/Indicator: TA98, Metabolic Activation: NONE, Method: STANDARD PLATE
[6] = Test System: AMES SALMONELLA TYPHIMURIUM, Strain/Indicator: TA98, Metabolic Activation: RAT, LIVER, S-9, AROCLOR 1254, Method: STANDARD PLATE
[7] = Test System: AMES SALMONELLA TYPHIMURIUM, Strain/Indicator: TA100, Metabolic Activation: NONE, Method: STANDARD PLATE
[8] = Test System: AMES SALMONELLA TYPHIMURIUM, Strain/Indicator: TA100, Metabolic Activation: RAT, LIVER, S-9, AROCLOR 1254, Method: STANDARD PLATE

Compound: CC(=O)OC1CC(C)OC(C)O1 (stereo not drawn)
- mutagenic call (Test System: AMES SALMONELLA TYPHIMURIUM, Strain/Indicator: TA98, Metabolic Activation: HAMSTER, LIVER, S-9, AROCLOR 1254, Method: PREINCUBATION): inactive; negative
- mutagenic call [1]: inactive; negative
- mutagenic call (Test System: AMES SALMONELLA TYPHIMURIUM, Strain/Indicator: TA98, Metabolic Activation: RAT, LIVER, S-9, AROCLOR 1254, Method: PREINCUBATION): inactive; negative
- mutagenic call (Test System: AMES SALMONELLA TYPHIMURIUM, Strain/Indicator: TA100, Metabolic Activation: HAMSTER, LIVER, S-9, AROCLOR 1254, Method: PREINCUBATION): active; positive
- mutagenic call [2]: inactive; negative
- mutagenic call (Test System: AMES SALMONELLA TYPHIMURIUM, Strain/Indicator: TA100, Metabolic Activation: RAT, LIVER, S-9, AROCLOR 1254, Method: PREINCUBATION): active; positive
- mutagenic call (Test System: AMES SALMONELLA TYPHIMURIUM, Strain/Indicator: TA1535, Metabolic Activation: HAMSTER, LIVER, S-9, AROCLOR 1254, Method: PREINCUBATION): inactive; negative
- mutagenic call [3]: inactive; negative
- mutagenic call (Test System: AMES SALMONELLA TYPHIMURIUM, Strain/Indicator: TA1535, Metabolic Activation: RAT, LIVER, S-9, AROCLOR 1254, Method: PREINCUBATION): inactive; negative
- mutagenic call (Test System: AMES SALMONELLA TYPHIMURIUM, Strain/Indicator: TA1537, Metabolic Activation: HAMSTER, LIVER, S-9, AROCLOR 1254, Method: PREINCUBATION): inactive; negative
- mutagenic call [4]: inactive; negative
- mutagenic call (Test System: AMES SALMONELLA TYPHIMURIUM, Strain/Indicator: TA1537, Metabolic Activation: RAT, LIVER, S-9, AROCLOR 1254, Method: PREINCUBATION): inactive; negative

Compound: CC(C)Nc1ccccc1
- mutagenic call (Test System: AMES SALMONELLA TYPHIMURIUM, Strain/Indicator: TA98, Metabolic Activation: HAMSTER, LIVER, S-9, AROCLOR 1254 (5 OR 30%), Method: PREINCUBATION): inactive; negative
- mutagenic call [1]: inactive; negative
- mutagenic call (Test System: AMES SALMONELLA TYPHIMURIUM, Strain/Indicator: TA98, Metabolic Activation: RAT, LIVER, S-9, AROCLOR 1254 (10%), Method: PREINCUBATION): inactive; negative
- mutagenic call (Test System: AMES SALMONELLA TYPHIMURIUM, Strain/Indicator: TA100, Metabolic Activation: HAMSTER, LIVER, S-9, AROCLOR 1254 (10%), Method: PREINCUBATION): inactive; negative
- mutagenic call [2]: inactive; negative
- mutagenic call (Test System: AMES SALMONELLA TYPHIMURIUM, Strain/Indicator: TA100, Metabolic Activation: RAT, LIVER, S-9, AROCLOR 1254 (10%), Method: PREINCUBATION): inactive; negative
- mutagenic call (Test System: AMES SALMONELLA TYPHIMURIUM, Strain/Indicator: TA1535, Metabolic Activation: HAMSTER, LIVER, S-9, AROCLOR 1254 (10%), Method: PREINCUBATION): inactive; negative
- mutagenic call [3]: inactive; negative
- mutagenic call (Test System: AMES SALMONELLA TYPHIMURIUM, Strain/Indicator: TA1535, Metabolic Activation: RAT, LIVER, S-9, AROCLOR 1254 (10%), Method: PREINCUBATION): inactive; negative
- mutagenic call (Test System: AMES SALMONELLA TYPHIMURIUM, Strain/Indicator: TA1537, Metabolic Activation: HAMSTER, LIVER, S-9, AROCLOR 1254 (10%), Method: PREINCUBATION): inactive; negative
- mutagenic call [4]: inactive; negative
- mutagenic call (Test System: AMES SALMONELLA TYPHIMURIUM, Strain/Indicator: TA1537, Metabolic Activation: RAT, LIVER, S-9, AROCLOR 1254 (10%), Method: PREINCUBATION): inactive; negative

Compound: Cc1cc(C(C)(C)C)c(O)c(C(C)(C)C)c1
- mutagenic call (End Point: IN VITRO CHROMOSOMAL ABERRATIONS, Test System: CHINESE HAMSTER OVARY CELLS, Metabolic Activation: NONE): inactive; negative
- mutagenic call (End Point: IN VITRO CHROMOSOMAL ABERRATIONS, Test System: CHINESE HAMSTER OVARY CELLS, Metabolic Activation: RAT, LIVER, S-9, AROCLOR 1254): inactive; negative; dose-related increase but it was not significant
- mutagenic call (Test System: AMES SALMONELLA TYPHIMURIUM, Strain/Indicator: TA97, Metabolic Activation: NONE, Method: STANDARD PLATE): inactive; negative
- mutagenic call (Test System: AMES SALMONELLA TYPHIMURIUM, Strain/Indicator: TA97, Metabolic Activation: RAT, LIVER, S-9, AROCLOR 1254, Method: STANDARD PLATE): inactive; negative
- mutagenic call (Test System: AMES SALMONELLA TYPHIMURIUM, Strain/Indicator: TA97, Metabolic Activation: RAT, LIVER, S-9, AROCLOR, Method: STANDARD PLATE): inactive; negative
- mutagenic call [1]: inactive; negative
- mutagenic call [5]: inactive; negative
- mutagenic call [6]: inactive; negative
- mutagenic call (Test System: AMES SALMONELLA TYPHIMURIUM, Strain/Indicator: TA98, Metabolic Activation: RAT, LIVER, S-9, Method: PREINCUBATION): inactive; negative
- mutagenic call (Test System: AMES SALMONELLA TYPHIMURIUM, Strain/Indicator: TA98, Metabolic Activation: S-9, Method: STANDARD PLATE): inactive; negative
- mutagenic call [2]: inactive; negative
- mutagenic call [7]: inactive; negative
- mutagenic call [8]: inactive; negative
- mutagenic call (Test System: AMES SALMONELLA TYPHIMURIUM, Strain/Indicator: TA100, Metabolic Activation: RAT, LIVER, S-9, AROCLOR, Method: STANDARD PLATE): inactive; negative
- mutagenic call (Test System: AMES SALMONELLA TYPHIMURIUM, Strain/Indicator: TA100, Metabolic Activation: RAT, LIVER, S-9, Method: PREINCUBATION): inactive; negative
- mutagenic call (Test System: AMES SALMONELLA TYPHIMURIUM, Strain/Indicator: TA100, Metabolic Activation: S-9, Method: STANDARD PLATE): inactive; negative
- mutagenic call (Test System: AMES SALMONELLA TYPHIMURIUM, Strain/Indicator: TA102, Metabolic Activation: NONE, Method: STANDARD PLATE): inactive; negative
- mutagenic call (Test System: AMES SALMONELLA TYPHIMURIUM, Strain/Indicator: TA102, Metabolic Activation: RAT LIVER S-9, PHENOBARBITAL AND 5,6-BENZOFLAVONE, Method: STANDARD PLATE): inactive; negative
- mutagenic call (Test System: AMES SALMONELLA TYPHIMURIUM, Strain/Indicator: TA102, Metabolic Activation: RAT, LIVER, S-9, AROCLOR, Method: STANDARD PLATE): inactive; negative
- mutagenic call (Test System: AMES SALMONELLA TYPHIMURIUM, Strain/Indicator: TA104, Metabolic Activation: NONE, Method: PREINCUBATION): inactive; negative
- mutagenic call (Test System: AMES SALMONELLA TYPHIMURIUM, Strain/Indicator: TA104, Metabolic Activation: NONE, Method: STANDARD PLATE): inactive; negative
- mutagenic call (Test System: AMES SALMONELLA TYPHIMURIUM, Strain/Indicator: TA104, Metabolic Activation: RAT, LIVER, S-9, AROCLOR, Method: PREINCUBATION): inactive; negative
- mutagenic call (Test System: AMES SALMONELLA TYPHIMURIUM, Strain/Indicator: TA104, Metabolic Activation: RAT, LIVER, S-9, AROCLOR, Method: STANDARD PLATE): inactive; negative
- mutagenic call (Test System: AMES SALMONELLA TYPHIMURIUM, Strain/Indicator: TA2638, Metabolic Activation: RAT LIVER S-9, PHENOBARBITAL AND 5,6-BENZOFLAVONE, Method: STANDARD PLATE): inactive; negative
- mutagenic call (Test System: E. COLI, Strain/Indicator: WP2 (PKM101), Metabolic Activation: RAT LIVER S-9, PHENOBARBITAL AND 5,6-BENZOFLAVONE, Method: STANDARD PLATE): inactive; negative
- mutagenic call (Test System: E.COLI, Strain/Indicator: WP2 UVRA (PKM101), Metabolic Activation: RAT LIVER S-9, PHENOBARBITAL AND 5,6-BENZOFLAVONE, Method: STANDARD PLATE): inactive; negative

Compound: C1CCC2OCCOCCOC3CCCCC3OCCOCCOC2C1 (stereo not drawn)
- mutagenic call [5]: inactive; negative
- mutagenic call [6]: inactive; negative
- mutagenic call [7]: inactive; negative
- mutagenic call [8]: inactive; negative
- mutagenic call (Test System: AMES SALMONELLA TYPHIMURIUM, Strain/Indicator: TA1530, Metabolic Activation: NONE, Method: STANDARD PLATE): inactive; negative
- mutagenic call (Test System: AMES SALMONELLA TYPHIMURIUM, Strain/Indicator: TA1530, Metabolic Activation: RAT, LIVER, S-9, AROCLOR 1254, Method: STANDARD PLATE): inactive; negative
- mutagenic call (Test System: AMES SALMONELLA TYPHIMURIUM, Strain/Indicator: TA1537, Metabolic Activation: NONE, Method: STANDARD PLATE): inactive; negative
- mutagenic call (Test System: AMES SALMONELLA TYPHIMURIUM, Strain/Indicator: TA1537, Metabolic Activation: RAT, LIVER, S-9, AROCLOR 1254, Method: STANDARD PLATE): inactive; negative
